Source: paper PMC9075979 (Molecular Therapy, 2022)
Where “and” joins values, the source holds several entries; their conditions need not be identical. Equal entries are not always repeated. Structures can show the parent of a compound that is named as a salt. Where two headings read alike, the source gives them in different places.

Legend:
wild-type nanoluciferase = wild-type nanoluciferase (Oplophorus gracilirostris, UniProt Q9GV45, A31E/A60N/A81I/F95D/I117V/K70R/L54V/L99Q/M102K/N193R/P142E/Q151K/Q38R/Q45L/V71I/Y165I); type: biochemical; conditions: 4 μM
LATS biosensor = type: binding; conditions: 4 μM
[1] = tested on: SARS-CoV-2-Spike pseudotyped vesicular stomatitis virus (VSV-GFP-Spike); type: cell-based
[2] = target: SARS-CoV-2 spike RBD-ACE2 interaction (Homo sapiens, UniProt Q9BYF1); test: biochemical; type: binding; conditions: for IC50: IC50 Biosensor
[3] = target: RBD of SARS-CoV (2002)-ACE2 interaction (Homo sapiens, UniProt Q9BYF1); test: biochemical; type: binding
COVID-19 = conditions: cited from earlier work
[4] = in vivo, 0.016 mg/kg; cited from earlier work
[5] = target: S1 domain of SARS-CoV-2 spike-ACE2 interaction (Homo sapiens, UniProt Q9BYF1); type: binding
SARS-CoV-2 = type: cell-based
[6] = tested on: SARS-CoV-2 (strain 291.3 FR-4286); type: cell-based
[7] = rabbit, in vivo; cited from earlier work
VSV-Spike (strain 2) = conditions: mouse, in vivo
[8] = mouse, in vivo
wild-type VSV-GFP = type: cell-based
[9] = tested on: SARS-CoV-2 VOCs (Alpha, Beta, Delta, cluster5); type: cell-based
recombinant sACE2 = recombinant sACE2 (Homo sapiens, UniProt Q9BYF1); type: binding
[10] = tested on: SARS-CoV-2 (FR-4286 strain); set-up: species or system K18-hACE2 mice; conditions: mouse, in vivo
[11] = tested on: fusion between spike and ACE2 (HEK293T cells); type: cell-based
Recombinant ACE2 = Recombinant ACE2 (Homo sapiens, UniProt Q9BYF1)
[12] = method B, newly purchased drugs, 2–25 μM, Figure 2D
[13] = Prestwick library screen, 4 μM, compound added to pre-formed RBD:ACE2 complex
[14] = read-out: inhibition of bioreporter signal, SARS-CoV RBD/ACE2, both methods
[15] = Prestwick library screen, 4 μM, compound added to LgBiT-RBD, then SmBiT-ACE2

Chain of SARS-CoV-2 spike RBD-ACE2 interaction (Q9BYF1 18-740): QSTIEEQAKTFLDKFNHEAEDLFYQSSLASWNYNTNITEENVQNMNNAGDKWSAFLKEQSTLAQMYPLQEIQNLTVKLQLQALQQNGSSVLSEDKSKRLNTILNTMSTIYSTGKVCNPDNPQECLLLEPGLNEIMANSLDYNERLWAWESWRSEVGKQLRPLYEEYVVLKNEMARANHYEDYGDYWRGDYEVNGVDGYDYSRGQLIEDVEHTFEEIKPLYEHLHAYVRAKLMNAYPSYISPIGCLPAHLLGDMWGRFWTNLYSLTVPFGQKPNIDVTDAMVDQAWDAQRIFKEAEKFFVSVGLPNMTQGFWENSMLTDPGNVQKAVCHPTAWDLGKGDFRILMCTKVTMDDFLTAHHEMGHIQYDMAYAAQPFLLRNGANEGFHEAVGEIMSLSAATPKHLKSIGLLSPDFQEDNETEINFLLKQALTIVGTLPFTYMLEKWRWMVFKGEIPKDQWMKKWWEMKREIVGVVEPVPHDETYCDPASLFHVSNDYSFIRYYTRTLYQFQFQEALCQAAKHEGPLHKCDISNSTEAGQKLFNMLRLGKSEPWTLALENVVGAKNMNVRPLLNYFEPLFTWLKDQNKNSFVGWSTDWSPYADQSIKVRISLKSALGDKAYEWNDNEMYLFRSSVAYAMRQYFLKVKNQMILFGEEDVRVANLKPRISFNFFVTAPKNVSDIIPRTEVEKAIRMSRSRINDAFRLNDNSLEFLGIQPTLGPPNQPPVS
Chain of RBD of SARS-CoV (2002)-ACE2 interaction (Q9BYF1 18-740 limits assumed): as the sequence (Q9BYF1 18-740) above
Chain of Recombinant ACE2 (Q9BYF1 18-805): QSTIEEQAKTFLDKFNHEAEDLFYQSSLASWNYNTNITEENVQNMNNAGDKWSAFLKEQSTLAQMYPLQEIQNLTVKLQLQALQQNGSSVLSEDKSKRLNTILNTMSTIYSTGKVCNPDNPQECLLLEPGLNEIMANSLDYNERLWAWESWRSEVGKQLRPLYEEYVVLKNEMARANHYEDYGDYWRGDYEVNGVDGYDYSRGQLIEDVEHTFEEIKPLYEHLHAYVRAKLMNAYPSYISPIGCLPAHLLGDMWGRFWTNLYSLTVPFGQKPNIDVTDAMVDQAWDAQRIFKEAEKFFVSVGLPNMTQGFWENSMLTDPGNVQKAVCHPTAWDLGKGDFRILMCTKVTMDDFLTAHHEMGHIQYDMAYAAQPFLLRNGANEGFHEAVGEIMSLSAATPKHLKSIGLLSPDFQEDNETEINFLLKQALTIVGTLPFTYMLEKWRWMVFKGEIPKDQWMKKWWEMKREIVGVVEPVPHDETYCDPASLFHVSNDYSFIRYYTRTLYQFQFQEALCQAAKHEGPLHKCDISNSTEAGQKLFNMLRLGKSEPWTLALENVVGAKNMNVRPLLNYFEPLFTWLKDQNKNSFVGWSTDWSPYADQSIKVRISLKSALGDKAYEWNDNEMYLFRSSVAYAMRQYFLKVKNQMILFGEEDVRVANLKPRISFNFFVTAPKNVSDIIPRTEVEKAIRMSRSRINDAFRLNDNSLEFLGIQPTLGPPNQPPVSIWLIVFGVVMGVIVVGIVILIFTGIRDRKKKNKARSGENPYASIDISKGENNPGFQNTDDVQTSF
Chain of S1 domain of SARS-CoV-2 spike-ACE2 interaction (Q9BYF1 18-740): as the sequence (Q9BYF1 18-740) above
Chain of recombinant sACE2 (Q9BYF1 19-607): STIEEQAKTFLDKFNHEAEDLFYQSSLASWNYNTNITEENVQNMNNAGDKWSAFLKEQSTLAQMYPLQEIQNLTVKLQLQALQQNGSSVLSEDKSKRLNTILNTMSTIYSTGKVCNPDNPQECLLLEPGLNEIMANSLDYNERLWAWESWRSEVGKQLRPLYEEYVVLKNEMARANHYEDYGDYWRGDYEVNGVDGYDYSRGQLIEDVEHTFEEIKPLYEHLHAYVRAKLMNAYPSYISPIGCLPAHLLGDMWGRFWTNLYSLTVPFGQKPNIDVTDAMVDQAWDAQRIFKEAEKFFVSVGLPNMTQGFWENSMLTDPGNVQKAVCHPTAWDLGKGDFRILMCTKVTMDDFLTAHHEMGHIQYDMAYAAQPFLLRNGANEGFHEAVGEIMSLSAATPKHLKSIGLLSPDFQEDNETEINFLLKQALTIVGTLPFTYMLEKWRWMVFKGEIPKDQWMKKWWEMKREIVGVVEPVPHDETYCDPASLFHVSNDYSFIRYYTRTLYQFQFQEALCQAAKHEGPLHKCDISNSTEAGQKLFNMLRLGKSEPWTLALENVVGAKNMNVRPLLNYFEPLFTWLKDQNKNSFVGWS

For COc1cc(N)c(Cl)cc1C(=O)NC1CCN(CCCOc2ccc(F)cc2)CC1OC (stereo not drawn) [cisapride], the “reduction in luminescence with nanoluciferase on its own” value (wild-type nanoluciferase) was “not nanoluciferase on its own”, the “reduction in luminescence with the LATS biosensor” value (LATS biosensor) was −13% and the “effect on VSV infection” value [1] was “did not affect VSV infection at all concentrations tested”. The “toxic at doses of more than” value (VeroE6 and VeroAT cells; VeroE6 / VeroAT, 48 h) was “more than 20 μM” and the IC50 [2, 12] was 16500 nM.

For Clc1ccccc1C(c1ccccc1)(c1ccccc1)n1ccnc1 [clotrimazole], the “reduction in bioreporter signal, method A” value (shortened to “reduction … method A”) [2, 13] was −21%.

C#C[C@]1(O)CC[C@H]2[C@@H]3CCc4cc(O)ccc4[C@H]3CC[C@@]21C [ethynylestradiol, 17a-ethynylestradiol] showed an inhibition at 4 µM [3, 14] of 3 to 6% and an IC50 [2, 12] of 2600 nM.

Work on COC(=O)C1=C(C)NC(C)=C(C(=O)OCCN(C)Cc2ccccc2)C1c1cccc([N+](=O)[O-])c1 (stereo not drawn) [nicardipine, nicardipine HCl] yielded an inhibition at 4 µM [3, 14] of 3 to 6% and an IC50 [2, 12] of 1900 nM.

In the case of CCC(C)n1ncn(-c2ccc(N3CCN(c4ccc(OCC5COC(Cn6cncn6)(c6ccc(Cl)cc6Cl)O5)cc4)CC3)cc2)c1=O (stereo not drawn) [itraconazole], the “efficacy in hospitalized individuals” value (COVID-19; administered orally, clinical study) is listed as “no efficacy”.

For CCOC1O[C@H]([C@@H](COCc2ccccc2)OCc2ccccc2)[C@H](OCc2ccccc2)[C@H]1O (stereo partly drawn) [tribenoside], the “reduction in bioreporter signal, method B” value (“reduction … method B” below) [2, 15] was −9% and the “reduction … method A” value [2, 13] was −21%.

In the case of CC(=O)N1CCN(c2ccc(OCC3COC(Cn4ccnc4)(c4ccc(Cl)cc4Cl)O3)cc2)CC1 (stereo not drawn) [ketoconazole], the “concentration giving spike-specific reduction in viral growth” value [1] is reported as ~80 µM, the IC50 ([2]; method B, imidazole comparison, Figure 3B) is reported as 14500 nM and the “reduction … method A” value [2, 13] is reported as −29%.

For CC(C)C(=O)OC[C@H]1O[C@@H](n2ccc(NO)nc2=O)[C@H](O)[C@@H]1O [Molnupiravir], the “reduction of hospitalization or death” value (COVID-19; oral treatment, clinical) is listed as 50%.

For c1ccc(-c2ccc(C(c3ccccc3)n3ccnc3)cc2)cc1 (stereo not drawn) [bifonazole], the “half-life (t1/2), first phase of biphasic elimination” value [4] is given as 7 h, the “half-life (t1/2), second phase of biphasic elimination” value [4] is given as 42 h and the “reduction in binding, ACE2 and S1 domain of spike” value [5] is given as ~30%. The “effect on cell viability” value (A549-hACE2 cells) was “no effect on cell viability at the dose tested”, the VSV-Spike plaque size [1] was “reduction in VSV-Spike plaque size” and the “concentration giving spike-specific reduction in viral growth” value [1] was ~35 µM. For the same compound, the “immunofluorescent VSV staining, spike-pseudotyped VSV strains” value [1] was “complete abrogation of VSV staining”, the “viral entry of pseudotyped VSV-Spike” value [1] was “significant impairment in viral entry” and the “viral mRNA and infectious particles (TCID50)” value (SARS-CoV-2) was “reduction in viral mRNA as well as infectious particles”. The “spike protein levels (immunoblotting)” value [6] was “dramatic reduction in spike protein levels”, the “viral burden by TCID50 assay” value [6] was “reduced” and the “viral mRNA levels (qPCR)” value [6] was “significant reduction in viral mRNA levels”. For the same compound, the effect on viability (VeroE6-hTMPRSS2 cells) was “no effect on viability at the antiviral dose tested”, the “oral doses that could result in embryotoxicity” value [7] was > 30 mg/kg and the “reduction in pY705-Stat3 in the lungs” value (VSV-Spike (strain 2)) was ~50%. The reduction of lethality (VSV-Spike (strain 2)) was 40%, the survival (VSV-Spike (strain 2)) was 2 of 5 and the “survival of challenged mice” value (VSV-Spike (strain 2)) was 40%. For the same compound, the “viral load in lungs by qRT-PCR” value (VSV-Spike (strain 2)) was “significant reduction in viral load”, the tolerability [8] was “well tolerated” and the “WT VSV infection (entry)” value (wild-type VSV-GFP) was “largely unaffected”. The “WT VSV plaque size” value (wild-type VSV-GFP) was “no effect on WT VSV”, the “concentration up to which no overt toxicity” value (VeroE6 and VeroAT cells; African green monkey) was “up to 100 μM” and the inhibition at 4 µM ([3]; read-out: inhibition of luminescence, SARS-CoV RBD/ACE2, method A) was 45%. The inhibition at 4 µM ([3]; read-out: inhibition of luminescence, SARS-CoV RBD/ACE2, method B) was 22%, the “viral RNA levels of VOCs” value [9] was “significant reduction in output of the VOCs” and the “effect on sACE2 unfolding by urea” value (recombinant sACE2) was “stabilizes sACE2”. For the same compound, the “bioreporter complementation, pre-treatment of ACE2 followed by RBD” value [2] was “complete abrogation of bioreporter complementation and luminescence”, the “concentration inhibiting WT ACE2 binding to the RBD to similar levels as αRBD” value [2] was 3.29 µM and the “reduction … method A” value [2] was −46%. For the same compound, the “reduction … method B” value [2] was −51%, the IC50 [2] was 1300 nM and 1600 nM and the inhibition at 4 µM ([2]; read-out: peak inhibition, pre-treatment of RBD followed by ACE2) was 50%. For the same compound, the inhibition at 3.29 µM ([2]; read-out: signal inhibition) was 80%, the survival [10] was 8 of 11 and the weight after infection [10] was “lost less weight”. The “fusion of ACE2- and ACE2/TMPRSS2-expressing cells with spike-expressing HEK293T cells” value [11] was “dose-dependent reduction in fusion” and the “inhibition of ACE2 enzymatic activity” value (Recombinant ACE2) was “does not involve inhibition of ACE2 enzymatic activity”.

With Clc1ccc(COC(Cn2ccnc2)c2ccc(Cl)cc2Cl)cc1 (stereo not drawn) [econazole nitrate, econazole nitrate salt] the “reduction … method B” value [2, 15] was −23% and the “reduction … method A” value [2, 13] was −36%.
